Laboratory results: patent publication US20140155384A1, “COMPOUNDS AND METHODS OF TREATING DIABETES” (Medivation Technologies, Inc., priority 2011, published 2014)

How the values were obtained:
[1] = molecular target: T1, human recombinant adrenergic α2B receptor (Homo sapiens, UniProt P18089); experiment: Radioligand binding, adrenergic α2B receptor ([3H]Rauwolscine); settings: 0.1 μM compound, CHO-K1 cells, read-out: Percentage inhibition of ligand binding, Adrenergic α2B
T1 construct: expressed in transfected cells; host or cells: CHO-K1
T1 sequence (P18089 1-450): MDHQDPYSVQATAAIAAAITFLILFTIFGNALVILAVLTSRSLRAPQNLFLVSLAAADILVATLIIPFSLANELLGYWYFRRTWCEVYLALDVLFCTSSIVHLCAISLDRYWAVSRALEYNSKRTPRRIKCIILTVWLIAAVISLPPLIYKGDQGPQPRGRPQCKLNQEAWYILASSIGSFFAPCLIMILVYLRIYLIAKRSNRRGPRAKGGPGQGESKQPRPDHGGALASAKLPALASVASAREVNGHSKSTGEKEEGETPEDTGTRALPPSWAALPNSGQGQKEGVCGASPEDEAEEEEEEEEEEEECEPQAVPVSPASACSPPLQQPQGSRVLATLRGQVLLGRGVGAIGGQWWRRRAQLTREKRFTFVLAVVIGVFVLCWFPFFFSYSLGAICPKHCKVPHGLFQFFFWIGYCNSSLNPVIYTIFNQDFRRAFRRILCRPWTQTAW
Procedure, shortened: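 Percent inhibition of specific [3H]Rauwolscine (2.5 nM) binding, compounds at ≤1 μM, 1% DMSO vehicle, 10 μM prazosin defining nonspecific. Receptor: human α2B expressed in CHO-K1 cells, 60 min incubation at 25 °C in Tris-HCl pH 7.4 buffer (MgCl2, EDTA, BSA); filtered, washed, counted.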

[2] = molecular target: T2, human recombinant adrenergic α1D receptor (Homo sapiens, UniProt P25100); experiment: Radioligand binding, adrenergic α1D receptor ([3H]Prazosin); settings: 0.1 μM compound; HEK-293 cells; 0.6 nM [3H]Prazosin; read-out: Percentage inhibition of ligand binding, Adrenergic α1D
T2 construct: expressed in transfected cells; host or cells: HEK-293
T2 sequence (P25100 1-572): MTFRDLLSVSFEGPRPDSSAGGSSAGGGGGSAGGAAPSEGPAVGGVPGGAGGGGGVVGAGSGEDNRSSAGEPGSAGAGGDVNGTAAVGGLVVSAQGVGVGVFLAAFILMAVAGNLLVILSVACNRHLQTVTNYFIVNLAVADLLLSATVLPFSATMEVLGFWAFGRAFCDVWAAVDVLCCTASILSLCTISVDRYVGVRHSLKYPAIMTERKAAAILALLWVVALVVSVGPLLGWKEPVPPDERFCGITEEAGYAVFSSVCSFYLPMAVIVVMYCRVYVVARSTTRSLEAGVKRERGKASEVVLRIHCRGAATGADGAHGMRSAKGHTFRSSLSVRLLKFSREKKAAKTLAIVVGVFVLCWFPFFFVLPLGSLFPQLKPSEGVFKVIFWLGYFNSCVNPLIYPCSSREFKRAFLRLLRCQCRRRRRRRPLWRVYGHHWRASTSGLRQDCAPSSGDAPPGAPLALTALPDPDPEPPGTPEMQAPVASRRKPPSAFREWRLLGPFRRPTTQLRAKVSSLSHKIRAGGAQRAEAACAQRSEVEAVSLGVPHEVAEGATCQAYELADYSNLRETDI
Procedure: Compounds were incubated with 0.6 nM [3H]Prazosin for 60 min at 25° C. Non-specific binding was estimated in the presence of 10 μM phentolamine. Receptor proteins were filtered and washed, the filters were then counted to determine [3H]Prazosin specifically bound. Compounds were screened at 1 μM or lower, using 1% DMSO as vehicle. Biochemical assay results are presented as the percent inhibition of specific binding in Table 2.

[3] = molecular target: T3, human recombinant adrenergic α2A receptor (Homo sapiens, UniProt P08913); experiment: Radioligand binding, adrenergic α2A receptor ([3H]MK-912); settings: 0.1 μM compound; Sf9 cells; 1 nM [3H]MK-912; read-out: Percentage inhibition of ligand binding, Adrenergic α2A
T3 construct: expressed in transfected cells; host or cells: insect Sf9 cells
T3 sequence (P08913 1-465): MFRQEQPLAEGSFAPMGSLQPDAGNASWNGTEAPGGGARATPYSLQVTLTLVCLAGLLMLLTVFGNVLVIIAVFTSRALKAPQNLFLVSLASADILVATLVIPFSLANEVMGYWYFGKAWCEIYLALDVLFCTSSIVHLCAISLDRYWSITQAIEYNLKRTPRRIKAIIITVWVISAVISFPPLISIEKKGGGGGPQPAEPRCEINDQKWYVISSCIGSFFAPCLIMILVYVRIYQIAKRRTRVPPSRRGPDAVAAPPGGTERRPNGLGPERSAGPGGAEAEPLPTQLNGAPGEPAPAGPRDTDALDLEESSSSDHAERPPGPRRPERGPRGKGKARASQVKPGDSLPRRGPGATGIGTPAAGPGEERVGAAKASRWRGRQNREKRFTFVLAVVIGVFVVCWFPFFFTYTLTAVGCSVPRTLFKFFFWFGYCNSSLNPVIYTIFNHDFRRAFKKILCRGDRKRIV
Procedure, shortened: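 Percent inhibition of specific [3H]MK-912 (1 nM) binding measured by filtration counting, compounds tested at ≤1 μM in 1% DMSO. Receptor: human α2A from Sf9 cells; incubation 60 min, 25 °C, pH 7.4; 10 μM WB-4101 defined nonspecific binding.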

[4] = molecular target: T4, rat adrenergic α1B receptor (Rattus norvegicus, UniProt P15823); experiment: Radioligand binding, adrenergic α1B receptor ([3H]Prazosin); settings: 0.1 μM compound, Wistar rat liver, read-out: Percentage inhibition of ligand binding, Adrenergic α1B
T4 construct: rat adrenergic α1B receptor obtained from Wistar Rat liver; from tissue; host or cells: Wistar rat liver
T4 sequence (P15823 1-515): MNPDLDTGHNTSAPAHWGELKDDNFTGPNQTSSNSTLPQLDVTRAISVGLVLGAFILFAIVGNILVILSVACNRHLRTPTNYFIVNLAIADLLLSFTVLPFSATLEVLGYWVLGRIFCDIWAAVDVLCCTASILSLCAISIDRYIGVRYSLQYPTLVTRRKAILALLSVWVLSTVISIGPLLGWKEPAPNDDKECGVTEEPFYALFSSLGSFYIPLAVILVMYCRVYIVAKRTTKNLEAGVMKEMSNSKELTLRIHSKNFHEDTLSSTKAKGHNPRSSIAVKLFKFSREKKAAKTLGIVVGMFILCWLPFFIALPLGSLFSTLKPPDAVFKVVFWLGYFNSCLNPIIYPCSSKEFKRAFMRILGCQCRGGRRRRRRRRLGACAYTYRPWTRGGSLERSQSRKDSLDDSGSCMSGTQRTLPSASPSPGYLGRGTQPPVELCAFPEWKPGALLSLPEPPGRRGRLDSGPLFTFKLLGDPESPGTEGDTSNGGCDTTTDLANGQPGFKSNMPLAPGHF
Procedure, shortened: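 Wistar rat liver α1B receptor preparation incubated with 0.25 nM [3H]prazosin and compound for 60 min at 25° C in 50 mM Tris-HCl pH 7.4, 0.5 mM EDTA; nonspecific binding defined with 10 μM phentolamine.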

| SMILES | inhibition at 0.1 µM [1] [%] | inhibition at 0.1 µM [2] [%] | inhibition at 0.1 µM [3] [%] | inhibition at 0.1 µM [4] [%] |
| --- | --- | --- | --- | --- |
| Cc1ccc2c(c1)c1c(n2-c2cccc(-c3ccc(C)s3)c2)CCN(C)C1 [Compound No. 64, 2,8-dimethyl-5-(3-(5-methylthiophen-2-yl)phenyl)-2,3,4,5-tetrahydro-1H-pyrido[4,3-b]indole] | 1 | -1 | 25 | 10 |
| Cc1ccc2c(c1)c1c(n2-c2cccc(-c3c(C)noc3C)c2)CCN(C)C1 [Compound No. 65, 4-(3-(2,8-dimethyl-3,4-dihydro-1H-pyrido[4,3-b]indol-5(2H)-yl)phenyl)-3,5-dimethylisoxazole] | 46 | 1 | 33 | 14 |
| Cc1ccc2c(c1)c1c(n2-c2cccc(-c3ccnn3C)c2)CCN(C)C1 [Compound No. 66, 2,8-dimethyl-5-(3-(1-methyl-1H-pyrazol-5-yl)phenyl)-2,3,4,5-tetrahydro-1H-pyrido[4,3-b]indole] | 18 | 11 | 39 | 13 |
| Cc1ccc2c(c1)c1c(n2-c2cccc(-c3cncc4ccccc34)c2)CCN(C)C1 [Compound No. 67, 5-(3-(isoquinolin-4-yl)phenyl)-2,8-dimethyl-2,3,4,5-tetrahydro-1H-pyrido[4,3-b]indole] | 13 | -1 | 39 | 2 |
| Cc1ccc2c(c1)c1c(n2-c2cccc(-c3cccn3C)c2)CCN(C)C1 [Compound No. 69, 2,8-dimethyl-5-(3-(1-methyl-1H-pyrrol-2-yl)phenyl)-2,3,4,5-tetrahydro-1H-pyrido[4,3-b]indole] | 3 | 9 | 39 | 11 |
| Cc1ccc2c(c1)c1c(n2-c2cccc(-c3cn[nH]c3)c2)CCN(C)C1 [Compound No. 70, 5-(3-(1H-pyrazol-4-yl)phenyl)-2,8-dimethyl-2,3,4,5-tetrahydro-1H-pyrido[4,3-b]indole] | 19 | 9 | 34 | 18 |
| CNC(=O)c1ccc(-c2ccccc2-n2c3c(c4cc(C)ccc42)CN(C)CC3)cn1 [Compound No. 71, 5-(2-(2,8-dimethyl-3,4-dihydro-1H-pyrido[4,3-b]indol-5(2H)-yl)phenyl)-N-methylpicolinamide] | 89 | 87 | 11 | 66 |

Continued, values first:

| inhibition at 0.1 µM [1] [%] | inhibition at 0.1 µM [2] [%] | inhibition at 0.1 µM [3] [%] | inhibition at 0.1 µM [4] [%] | SMILES |
| --- | --- | --- | --- | --- |
| 17 | 56 | 3 | 28 | CNC(=O)c1ccc(-c2ccccc2-n2c3c(c4cc(C)ccc42)CN(C)CC3)cc1 [Compound No. 72, 2′-(2,8-dimethyl-3,4-dihydro-1H-pyrido[4,3-b]indol-5(2H)-yl)-N-methylbiphenyl-4-carboxamide] |
| 94 | 83 | 16 | 64 | CNC(=O)c1ccc(-c2cscc2-n2c3c(c4cc(C)ccc42)CN(C)CC3)cn1 [Compound No. 73] |
| 70 | 18 | 38 | 41 | Cc1ccc2c(c1)c1c(n2-c2ccc3ccncc3c2)CCN(C)C1 [Compound No. 74, 5-(isoquinolin-7-yl)-2,8-dimethyl-2,3,4,5-tetrahydro-1H-pyrido[4,3-b]indole] |
| 16 | 15 | 21 | 20 | CNC(=O)c1ccc(-c2cccc(-n3c4c(c5cc(C)ccc53)CN(C)CC4)c2)cn1 [Compound No. 75, 5-(3-(2,8-dimethyl-3,4-dihydro-1H-pyrido[4,3-b]indol-5(2H)-yl)phenyl)-N-methylpicolinamide] |
| 45 | 6 | 15 | 15 | Cc1ccc2c(c1)c1c(n2-c2ccc3c(c2)CCN(C=O)C3)CCN(C)C1 [Compound No. 77, 6-(2,8-dimethyl-1,2,3,4-tetrahydro-pyrido[4,3-b]indol-5-yl)-3,4-dihydro-1H-isoquinoline-2-carbaldehyde] |
| 86 | 21 | 63 | 8 | CNC(=O)c1cc(-n2c3c(c4cc(C)ccc42)CN(C)CC3)cs1 [Compound No. 78] |
| 27 | 23 | 12 | 9 | Cc1ccc2c(c1)c1c(n2-c2ccccc2-c2ccc(O)nc2)CCN(C)C1 [Compound No. 80, 5-(2-(2,8-dimethyl-3,4-dihydro-1H-pyrido[4,3-b]indol-5(2H)-yl)phenyl)pyridin-2-ol] |
| 95 | 36 | 88 | 37 | Cc1ccc2c(c1)c1c(n2-c2ccccc2-c2ccc(C)s2)CCN(C)C1 [Compound No. 81, 2,8-dimethyl-5-(2-(5-methylthiophen-2-yl)phenyl)-2,3,4,5-tetrahydro-1H-pyrido[4,3-b]indole] |
| 21 | 14 | 30 | 14 | Cc1ccc2c(c1)c1c(n2-c2ccccc2-c2c(C)noc2C)CCN(C)C1 [Compound No. 82, 4-(2-(2,8-dimethyl-3,4-dihydro-1H-pyrido[4,3-b]indol-5(2H)-yl)phenyl)-3,5-dimethylisoxazole] |
